# From publication PMC8446797 (The Journal of Biological Chemistry, 2021)
# No end group written: not given here. 5Flu = C-terminal fluorescein
# What was measured:
# [1] = molecular target: T1, CRIP1a (Rattus norvegicus, UniProt Q5M7A7); experiment: Fluorescence polarization of fluorescein-labeled peptides binding to CRIP1a; conditions: 20 nM peptide, CRIP1a 0–250 μM, 30 min, room temperature, 25 mM Hepes pH 7.5, 100 mM NaCl, 5 mM MgCl2, 0.1 mM EDTA, 2 mM TCEP, 10% glycerol, λex 470 nm, λem 530 nm, biological quadruplicates, three separate days
# T1 sequence (Q5M7A7 1-164): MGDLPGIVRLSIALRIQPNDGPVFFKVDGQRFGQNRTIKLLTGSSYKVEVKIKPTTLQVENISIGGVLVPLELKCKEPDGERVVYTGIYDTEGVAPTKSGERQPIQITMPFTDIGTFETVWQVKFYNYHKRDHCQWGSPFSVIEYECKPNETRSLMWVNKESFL
# [2] = molecular target: N-terminally myristoylated 9-mer peptide mimicking the Gαi N terminus (Myr-…-5Flu); experiment: fluorescence polarisation
binding to CRIP1a (in words) [1],Kd [2] [µM],Substance
inability to bind,,5Flu-SQGKSSC(Farn)-OMe [Rheb-Farn peptide]
,21.2,Cannabinoid receptor interacting protein 1a (from UniProt Q5M7A7 1-164) (natural protein)
unable to readily bind,,Myr-GTASSLVSPK-5Flu [Myr-NHPH3 peptide]
unable to readily bind,,nonmyristoylated Gα peptide: corresponding nonmyristoylated peptide used as the control (GCTLSAEDK-5Flu)
